Results published in publication PMC11393453, “Phosphorylation of tau at a single residue inhibits binding to the E3 ubiquitin ligase, CHIP” (Nature Communications, 2024).
pKd: −log10 of the molar value. Where two headings read alike, the source gives them in different places.

Legend:
[1] = biological target: CHIP; test: CHIP-tau binding ELISA (tau proteoforms on immobilized CHIP)
[2] = test system: CHIP; settings: cited from earlier work
Text: Moreover, the appearance of pS416 and tauC3 are coincident in AD patient samples (see Fig. 5), supporting a putative role of these PTMs in tau proteostasis. Based on these collective findings and in concert with observations from the literature, we propose a model to explain the hierarchy of these tau PTMs (Fig. 6D). In this speculative model, FL tau can either be phosphorylated by MARK2 or CaMKII ...

## p.tau: full length phosphorylated tau produced in Sf9 insect cells
[1]; Fig 1C,D, tau proteoform binding to immobilized CHIP (1 µM coated), 3 h RT, technical triplicate, ± SD
  pKd: ~6.30
[1]; Fig 1D, replicate 1
  pKd: 6.36
[1]; Fig 1D, replicate 2
  pKd: 6.33
[1]; Fig 1D, replicate 3
  pKd: 6.33
[1]; read-out: transformed Kd, Fig 1D, replicate 1
  pKd: 6.36
[1]; read-out: transformed Kd, Fig 1D, replicate 2
  pKd: 6.33
[1]; read-out: transformed Kd, Fig 1D, replicate 3
  pKd: 6.33
[2]
  fold better binding of CHIP than to unmodified FL tau: 10 fold
